According to patent US10669272B2, “Substituted naphthyridinone compounds useful as T cell activators” (BRISTOL-MYERS SQUIBB COMPANY, priority 2018, dated 2020):
Read-outs that look alike come from different tables or passages of the source.

Key:
human DGKζ = molecular target: T1, human DGKζ (Homo sapiens, UniProt Q13574); assay: DGKζ LIPGLO assay (extruded liposome substrate), in vitro DGK inhibition; assay type: biochemical; conditions: read-out: DGKz LIPGLO IC50
T1 construct: TVMV protease cleavage site (C); Hexa-His (C); made in house; host or cells: Sf9 insect cells (baculovirus, Bac-to-Bac)
T1 sequence (Q13574 with tags, fused parts or gaps isoform Q13574-4): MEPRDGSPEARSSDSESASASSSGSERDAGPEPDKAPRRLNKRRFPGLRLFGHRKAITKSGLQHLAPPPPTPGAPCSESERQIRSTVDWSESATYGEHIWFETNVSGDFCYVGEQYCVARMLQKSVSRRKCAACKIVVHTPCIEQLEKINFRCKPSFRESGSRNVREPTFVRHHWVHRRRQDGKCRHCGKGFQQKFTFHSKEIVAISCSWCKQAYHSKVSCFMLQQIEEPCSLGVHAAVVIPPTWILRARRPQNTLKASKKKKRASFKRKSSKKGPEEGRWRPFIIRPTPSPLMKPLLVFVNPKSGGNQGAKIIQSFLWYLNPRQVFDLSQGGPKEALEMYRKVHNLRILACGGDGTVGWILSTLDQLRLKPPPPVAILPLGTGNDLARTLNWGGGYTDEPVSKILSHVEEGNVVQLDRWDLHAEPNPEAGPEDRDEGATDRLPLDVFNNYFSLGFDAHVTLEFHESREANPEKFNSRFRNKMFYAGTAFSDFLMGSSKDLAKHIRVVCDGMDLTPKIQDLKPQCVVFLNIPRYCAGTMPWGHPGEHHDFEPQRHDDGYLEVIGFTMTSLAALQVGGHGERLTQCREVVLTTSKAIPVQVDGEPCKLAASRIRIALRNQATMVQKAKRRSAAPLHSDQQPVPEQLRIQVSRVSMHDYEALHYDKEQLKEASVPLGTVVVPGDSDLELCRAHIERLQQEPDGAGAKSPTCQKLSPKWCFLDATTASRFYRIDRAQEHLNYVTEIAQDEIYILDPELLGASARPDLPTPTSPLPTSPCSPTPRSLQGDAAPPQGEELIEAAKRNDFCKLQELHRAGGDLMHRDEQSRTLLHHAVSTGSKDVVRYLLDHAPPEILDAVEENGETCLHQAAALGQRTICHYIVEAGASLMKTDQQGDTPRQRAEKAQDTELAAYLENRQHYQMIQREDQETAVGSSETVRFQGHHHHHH

naïve human CD8 T cells = assay: Human CD8 T cells IFN-γ assay; assay type: cell-based; conditions: read-out: HuCD8 INFG Normalized EC50;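 note: Naïve human CD8 T cells stimulated with plate-bound anti-CD3 and soluble anti-CD28, IFN-γ in supernatant quantified by AlphaLISA and converted to pg/mL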
human DGKα = molecular target: T2, human DGKα (Homo sapiens, UniProt P23743); assay: DGKα LIPGLO assay (extruded liposome substrate), in vitro DGK inhibition; assay type: biochemical; conditions: read-out: DGKa LIPGLO IC50
T2 construct: TVMV protease cleavage site (C); Hexa-His (C); made in house; host or cells: Sf9 insect cells (baculovirus, Bac-to-Bac)
T2 sequence (P23743 with tags, fused parts or gaps): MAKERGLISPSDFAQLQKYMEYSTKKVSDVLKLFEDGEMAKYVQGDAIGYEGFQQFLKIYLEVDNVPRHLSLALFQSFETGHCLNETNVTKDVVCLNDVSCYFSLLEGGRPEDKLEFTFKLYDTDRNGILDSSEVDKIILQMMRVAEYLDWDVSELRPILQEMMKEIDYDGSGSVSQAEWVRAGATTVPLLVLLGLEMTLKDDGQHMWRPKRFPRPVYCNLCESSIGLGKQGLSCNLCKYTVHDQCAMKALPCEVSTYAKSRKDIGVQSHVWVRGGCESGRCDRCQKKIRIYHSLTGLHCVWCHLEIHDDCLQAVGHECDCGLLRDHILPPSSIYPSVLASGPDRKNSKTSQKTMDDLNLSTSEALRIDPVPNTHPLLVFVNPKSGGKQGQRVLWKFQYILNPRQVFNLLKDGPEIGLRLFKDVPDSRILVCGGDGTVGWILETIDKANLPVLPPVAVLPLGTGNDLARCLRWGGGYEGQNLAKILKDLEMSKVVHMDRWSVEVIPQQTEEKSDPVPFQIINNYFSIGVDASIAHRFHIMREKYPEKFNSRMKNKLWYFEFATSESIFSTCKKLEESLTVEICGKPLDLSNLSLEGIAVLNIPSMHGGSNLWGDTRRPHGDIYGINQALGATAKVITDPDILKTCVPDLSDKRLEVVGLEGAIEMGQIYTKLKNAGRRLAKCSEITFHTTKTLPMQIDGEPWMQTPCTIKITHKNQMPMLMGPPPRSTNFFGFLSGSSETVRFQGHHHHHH

Human venous whole blood = assay: Human whole blood IFN-γ assay; assay type: cell-based; conditions: human whole blood, read-out: INFg Whole Blood Normalized Agonist EC50;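 note: blood from healthy donors exposed to compound for 1 h before stimulation with anti-CD3 and anti-CD28 at 1 µg/mL each, IFN-γ quantified in supernatant by AlphaLISA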
[1] = normalized to 3 μM reference compound with anti-CD3 plus anti-CD28 as 100% activation
[2] = Homo sapiens, T-cell, 20 h, normalized to 3 μM reference compound with anti-CD3 plus anti-CD28 as 100% activation
[3] = Homo sapiens, 24 h, normalized to 3 μM reference compound with anti-CD3 plus anti-CD28 as 100% activation
[4] = Homo sapiens, T-cell, 20 h, naïve human CD8 T cells, anti-CD3 plus anti-CD28, 3 μM reference compound = 100% activation
[5] = Homo sapiens, 24 h, anti-CD3 plus anti-CD28, 24 hours, 3 μM reference compound = 100% activation

| SMILES | IC50 (human DGKζ; liposome (LIPGLO) assay) [nM] | IC50 (human DGKα; liposome (LIPGLO) assay) [nM] | IC50 (human DGKζ; DGKζ liposome (LIPGLO) assay) [nM] | IC50 (human DGKα; DGKα liposome (LIPGLO) assay) [nM] | EC50 (naïve human CD8 T cells; [1]) [nM] | EC50 (Human venous whole blood; [1]) [nM] | EC50 (naïve human CD8 T cells; [2]) [nM] | EC50 (Human venous whole blood; [3]) [nM] | EC50 (naïve human CD8 T cells; [4]) [nM] | EC50 (Human venous whole blood; [5]) [nM] |
| --- | --- | --- | --- | --- | --- | --- | --- | --- | --- | --- |
| C[C@@H]1CN(c2cc(=O)n(C)c3ccc(C#N)nc23)[C@@H](C)CN1C(c1ccccc1)c1cc(F)cc(F)c1 (stereo partly drawn) [Example 288, 8-[(2S,5R)-4-[(3,5-difluorophenyl)(phenyl)methyl]-2,5-dimethylpiperazin-1-yl]-5-methyl-6-oxo-5,6-dihydro-1,5-naphthyridine-2-carbonitrile] | 2200 | 2000 |  |  |  |  | 26 | 810 |  |  |
| C[C@@H]1CN(c2cc(=O)n(C)c3ccc(C#N)nc23)[C@@H](C)CN1C(c1ccc(F)cc1)C1CCCCO1 (single isomer, unassigned) [Example 359] | 1100 | 280 |  |  |  | 660 | 38 |  |  |  |
| Cc1ccc(C(c2cccc(Cl)c2)N2C[C@H](C)N(c3cc(=O)n(C)c4ccc(C#N)nc34)C[C@H]2C)nc1 (single isomer, unassigned) [Example 369] | 1400 | 2800 |  |  | 150 |  |  | 480 |  |  |
| C[C@@H]1CN(c2cc(=O)n(C)c3ccc(C#N)nc23)[C@@H](C)CN1C(c1ccc(Cl)cc1)c1ccc(Cl)cn1 (single isomer, unassigned) [Example 202] | 490 | 110 |  |  | 8.3 | 380 |  |  |  |  |
| COc1cc(F)ccc1C(N1C[C@H](C)N(c2cc(=O)n(C)c3ccc(C#N)nc23)C[C@H]1C)C(C)(C)C (single isomer, unassigned) [Example 185] | 210 | 4400 |  |  |  | 2000 | 10000 |  |  |  |
| CCc1cc(F)ccc1C(c1ccc(Cl)cc1)N1C[C@H](C)N(c2cc(=O)n(C)c3ccc(OC)nc23)C[C@H]1C (single isomer, unassigned) [Example 232] | 1700 | 240000 |  |  | 10000 | 20000 |  |  |  |  |
| C[C@@H]1CN(c2cc(=O)n(C)c3ccc(C#N)nc23)[C@@H](C)CN1C(c1ccc(OC(F)(F)F)cc1)c1ccccn1 (single isomer, unassigned) [Example 378] | 2500 | 690 |  |  |  |  | 5.3 | 490 |  |  |
| Cc1ccc(C(c2cccc(F)n2)N2C[C@H](C)N(c3cc(=O)n(C)c4ccc(C#N)nc34)C[C@H]2C)cc1 (stereo partly drawn) [Example 476, 8-((2S,5R)-4-((6-fluoropyridin-2-yl)(p-tolyl)methyl)-2,5-dimethylpiperazin-1-yl)-5-methyl-6-oxo-5,6-dihydro-1,5-naphthyridine-2-carbonitrile] | 300 | 940 |  |  |  |  | 160 | 630 |  |  |
| C[C@@H]1CN(c2cc(=O)n(C)c3ccc(C#N)nc23)[C@@H](C)CN1C(c1ccc(Cl)cc1)c1ccccn1 (single isomer, unassigned) [Example 381] | 500 | 360 |  |  |  | 180 | 3.9 |  |  |  |

Second part, led by results:

| IC50 (human DGKζ; liposome (LIPGLO) assay) [nM] | IC50 (human DGKα; liposome (LIPGLO) assay) [nM] | IC50 (human DGKζ; DGKζ liposome (LIPGLO) assay) [nM] | IC50 (human DGKα; DGKα liposome (LIPGLO) assay) [nM] | SMILES | EC50 (naïve human CD8 T cells; [1]) [nM] | EC50 (Human venous whole blood; [1]) [nM] | EC50 (naïve human CD8 T cells; [2]) [nM] | EC50 (Human venous whole blood; [3]) [nM] | EC50 (naïve human CD8 T cells; [4]) [nM] | EC50 (Human venous whole blood; [5]) [nM] |
| --- | --- | --- | --- | --- | --- | --- | --- | --- | --- | --- |
| 340 | 64 |  |  | CC[C@H]1CN(C(c2ccc(Cl)cc2)c2ccc(F)cn2)[C@H](CC)CN1c1cc(=O)n(C)c2ccc(C#N)nc12 (single isomer, unassigned) [Example 1034] | 17 | 230 |  |  |  |  |
|  |  | 2800 | 2000 | Cc1ccc(C(c2ccc(F)cn2)N2C[C@H](C)N(c3c(C#N)c(=O)n(C)c4ccc(C#N)nc34)C[C@H]2C)cc1 (some centres unmarked) [Example 833] |  |  |  |  | 320 | 680 |
|  |  | 130 | 1100 | C[C@@H]1CN(c2cc(=O)n(C)c3ccc(C#N)nc23)[C@@H](C)CN1C(c1ccc(F)cc1)c1nc(C(C)(C)C)no1 (some centres unmarked) [Example 737] |  |  |  |  | 0.31 | 43 |
|  |  | 760 | 130 | C[C@@H]1CN(c2cc(=O)n(C)c3ccc(C#N)nc23)[C@@H](C)CN1C(c1ccc(F)cc1)c1nc(C2CCOCC2)no1 (single isomer, unassigned) [Example 739] |  |  |  |  | 52 | 190 |
| 730 | 1600 |  |  | COc1ccc(C(c2cccc(F)c2)N2C[C@H](C)N(c3cc(=O)n(C)c4ccc(C#N)nc34)C[C@H]2C)nc1 (single isomer, unassigned) [Example 687] |  | 270 | 17 |  |  |  |
